Relative viability data for 7 cell lines are collected here from the supplement of paper PMC10307832.

Common to all, as to experiment: relative viability (nuclei count vs DMSO), 5 days (fraction); higher = more cells survive
Compound in assay [1]: CCn1c(-c2nonc2N)nc2cnc(Oc3cccc(NC(=O)c4ccc(OCCN5CCOCC5)cc4)c3)cc21 + CC(=O)c1c(C)c2cnc(Nc3ccc(N4CCNCC4)cn3)nc2n(C2CCCC2)c1=O [Palbociclib] (partner 0.5 µM)
The gist of the method:
(§1)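 Medians of duplicate plates are given as relative viability. That measure is the nuclei count in treated wells divided by the count in vehicle wells. Counts were taken on 4× images of lung cancer cell lines in 1536-well plates, 5 days after pin-tool dosing the day after seeding with one drug alone or a fixed anchor-drug dose plus five library-drug doses (not always all listed) in √10 steps.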

Compound in assay [2]: CCn1c(-c2nonc2N)nc2cnc(Oc3cccc(NC(=O)c4ccc(OCCN5CCOCC5)cc4)c3)cc21 + Nc1nc2[nH]cc(CCc3ccc(C(=O)N[C@@H](CCC(=O)O)C(=O)O)cc3)c2c(=O)[nH]1 [Pemetrexed] (partner 0.2 µM)
The essentials:
as §1

Compound in assay [3]: CCn1c(-c2nonc2N)nc2cnc(Oc3cccc(NC(=O)c4ccc(OCCN5CCOCC5)cc4)c3)cc21 + CC1(C)CCC(c2ccc(Cl)cc2)=C(CN2CCN(c3ccc(C(=O)NS(=O)(=O)c4ccc(N[C@H](CCN5CCOCC5)CSc5ccccc5)c(S(=O)(=O)C(F)(F)F)c4)cc3)CC2)C1 [Navitoclax] (partner 0.5 µM)
The essentials: as §1

Compound in assay [4]: CCC1=CN=CN=C1N2CCN(CC2)CC3=NC4=C(N3)C=C(C=C4)C(F)(F)F + Cc1nc(Nc2ncc(C(=O)Nc3c(C)cccc3Cl)s2)cc(N2CCN(CCO)CC2)n1 [Dasatinib] (partner 0.075 µM)
The gist of the method: as §1

As to NCI-H3122, the relative viability in assay [1] (first compound 0.04 µM) came out at 0.209; in assay [1] (first compound 0.1265 µM), 0.182; in assay [1] (first compound 0.4 µM), 0.184; in assay [1] (first compound 1.265 µM) it was 0.19; in assay [1] (first compound 4 µM), 0.19; in assay [2] (first compound 0.04 µM) it was 0.217. The relative viability in assay [2] (first compound 0.1265 µM) was 0.214; in assay [2] (first compound 0.4 µM), 0.183; in assay [2] (first compound 1.265 µM), 0.17; in assay [2] (first compound 4 µM), 0.202; in assay [3] (first compound 0.04 µM), 1.02; in assay [3] (first compound 0.1265 µM) it was 1.03. Further, the relative viability amounted to 1.05 in assay [3] (first compound 0.4 µM); 0.974 in assay [3] (first compound 1.265 µM); 0.979 in assay [3] (first compound 4 µM); 0.848 in assay [4] (first compound 0.04 µM); 0.781 in assay [4] (first compound 0.1265 µM); 0.804 in assay [4] (first compound 0.4 µM). Besides, the relative viability in assay [4] (first compound 1.265 µM) was found to be 0.709; in assay [4] (first compound 4 µM) it was 1.02.
As to PC-3 [JPC-3], the relative viability was 0.539 in assay [1] (first compound 0.04 µM); 0.548 in assay [1] (first compound 0.1265 µM); 0.444 in assay [1] (first compound 0.4 µM); 0.497 in assay [1] (first compound 1.265 µM); 0.482 in assay [1] (first compound 4 µM); 1.14 in assay [2] (first compound 0.04 µM). Also, the relative viability in assay [2] (first compound 0.1265 µM) stood at 1.03; in assay [2] (first compound 0.4 µM), 1.05; in assay [2] (first compound 1.265 µM), 0.662; in assay [2] (first compound 4 µM) it was 0.928; in assay [3] (first compound 0.04 µM), 0.846; in assay [3] (first compound 0.1265 µM), 0.814. Further, the relative viability was 0.801 in assay [3] (first compound 0.4 µM); 0.866 in assay [3] (first compound 1.265 µM); 0.779 in assay [3] (first compound 4 µM); 0.978 in assay [4] (first compound 0.04 µM); 0.935 in assay [4] (first compound 0.1265 µM); 0.889 in assay [4] (first compound 0.4 µM). Besides, the relative viability in assay [4] (first compound 1.265 µM) was 1; in assay [4] (first compound 4 µM), 0.969.
On to PC-14, for which the relative viability in assay [1] (first compound 0.04 µM) is 0.578; in assay [1] (first compound 0.1265 µM), 0.432; in assay [1] (first compound 0.4 µM) it was 0.466; in assay [1] (first compound 1.265 µM) it was 0.486; in assay [1] (first compound 4 µM), 0.414; in assay [2] (first compound 0.04 µM), 0.136. Further, the relative viability in assay [2] (first compound 0.1265 µM) was determined as 0.149; in assay [2] (first compound 0.4 µM), 0.131; in assay [2] (first compound 1.265 µM), 0.138; in assay [2] (first compound 4 µM), 0.177; in assay [3] (first compound 0.04 µM), 1.1; in assay [3] (first compound 0.1265 µM) it was 1.01. The relative viability in assay [3] (first compound 0.4 µM) was 0.924; in assay [3] (first compound 1.265 µM) it was 0.934; in assay [3] (first compound 4 µM), 0.748; in assay [4] (first compound 0.04 µM), 0.269; in assay [4] (first compound 0.1265 µM) it was 0.258; in assay [4] (first compound 0.4 µM), 0.264. In addition, the values for the relative viability in assay [4] (first compound 1.265 µM) and in assay [4] (first compound 4 µM) were 0.218 and 0.264, respectively.
On to RERF-LC-KJ, for which the relative viability in assay [1] (first compound 0.04 µM) came out at 1.1; in assay [1] (first compound 0.1265 µM), 1.08; in assay [1] (first compound 0.4 µM), 0.969; in assay [1] (first compound 1.265 µM), 0.655; in assay [1] (first compound 4 µM), 0.678; in assay [2] (first compound 0.04 µM), 0.471. The relative viability in assay [2] (first compound 0.1265 µM) is 0.439; in assay [2] (first compound 0.4 µM), 0.418; in assay [2] (first compound 1.265 µM) it was 0.384; in assay [2] (first compound 4 µM) it was 0.415; in assay [3] (first compound 0.04 µM), 0.867; in assay [3] (first compound 0.1265 µM) it was 0.828. Moreover, the relative viability is 0.946 in assay [3] (first compound 0.4 µM); 0.603 in assay [3] (first compound 1.265 µM); 0.481 in assay [3] (first compound 4 µM); 0.768 in assay [4] (first compound 0.04 µM); 0.714 in assay [4] (first compound 0.1265 µM); 0.846 in assay [4] (first compound 0.4 µM). In addition, the relative viability came to 0.69 in assay [4] (first compound 1.265 µM) and 0.696 in assay [4] (first compound 4 µM).
With SK-LU-1, the relative viability in assay [1] (first compound 0.04 µM) turned out to be 0.434; in assay [1] (first compound 0.1265 µM) it was 0.368; in assay [1] (first compound 0.4 µM) it was 0.337; in assay [1] (first compound 1.265 µM), 0.275; in assay [1] (first compound 4 µM) it was 0.295; in assay [2] (first compound 0.04 µM) it was 0.918. The relative viability in assay [2] (first compound 0.1265 µM) worked out at 0.906; in assay [2] (first compound 0.4 µM), 0.772; in assay [2] (first compound 1.265 µM) it was 0.457; in assay [2] (first compound 4 µM) it was 0.372; in assay [3] (first compound 0.04 µM), 1.07; in assay [3] (first compound 0.1265 µM), 0.619. In addition, the relative viability in assay [3] (first compound 0.4 µM) is 0.383; in assay [3] (first compound 1.265 µM), 0.296; in assay [3] (first compound 4 µM), 0.229; in assay [4] (first compound 0.04 µM) it was 0.18; in assay [4] (first compound 0.1265 µM) it was 0.172; in assay [4] (first compound 0.4 µM) it was 0.2. The values for the relative viability in assay [4] (first compound 1.265 µM) and in assay [4] (first compound 4 µM) were 0.169 and 0.205, respectively.
As for SK-MES-1, the relative viability in assay [1] (first compound 0.04 µM) stood at 0.353; in assay [1] (first compound 0.1265 µM) it was 0.301; in assay [1] (first compound 0.4 µM) it was 0.284; in assay [1] (first compound 1.265 µM), 0.303; in assay [1] (first compound 4 µM), 0.309; in assay [2] (first compound 0.04 µM) it was 1.08. Moreover, the relative viability in assay [2] (first compound 0.1265 µM) amounted to 0.941; in assay [2] (first compound 0.4 µM), 0.829; in assay [2] (first compound 1.265 µM), 0.66; in assay [2] (first compound 4 µM) it was 0.46; in assay [3] (first compound 0.04 µM), 1.32; in assay [3] (first compound 0.1265 µM), 1.35. In addition, the relative viability in assay [3] (first compound 0.4 µM) was determined as 1.1; in assay [3] (first compound 4 µM), 1.05; in assay [4] (first compound 0.04 µM), 0.342; in assay [4] (first compound 0.1265 µM) it was 0.376; in assay [4] (first compound 0.4 µM), 0.416; in assay [4] (first compound 1.265 µM), 0.319. The relative viability in assay [4] (first compound 4 µM) worked out at 0.493.
For SW 1573, the relative viability in assay [1] (first compound 0.04 µM) was determined as 0.454; in assay [1] (first compound 0.1265 µM) it was 0.355; in assay [1] (first compound 0.4 µM), 0.349; in assay [1] (first compound 1.265 µM), 0.206; in assay [1] (first compound 4 µM) it was 0.211; in assay [2] (first compound 0.04 µM), 0.913. Also, the relative viability in assay [2] (first compound 0.1265 µM) stood at 0.821; in assay [2] (first compound 0.4 µM), 0.535; in assay [2] (first compound 1.265 µM) it was 0.32; in assay [2] (first compound 4 µM) it was 0.261; in assay [3] (first compound 0.04 µM) it was 0.911; in assay [3] (first compound 0.1265 µM), 1.19. The relative viability in assay [3] (first compound 0.4 µM) amounted to 0.807; in assay [3] (first compound 1.265 µM), 0.562; in assay [3] (first compound 4 µM), 0.223; in assay [4] (first compound 0.04 µM) it was 0.382; in assay [4] (first compound 0.1265 µM), 0.453; in assay [4] (first compound 0.4 µM), 0.5. Besides, the figures for the relative viability in assay [4] (first compound 1.265 µM) and in assay [4] (first compound 4 µM) were 0.494 and 0.452, respectively.
